The results in this text go back to ChEMBL document CHEMBL1201862, “PubChem BioAssay data set” (2004).

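Exposure lasted 48 hours, with cells grown in 96-well plates and compounds tested at five concentrations. At the GI50, growth is halved.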 Active and inactive are the calls of the source. Rule as the data show it: active = GI50 up to about 1.1 µM and inactive = higher.

Holding throughout (test): NCI tumour cell line growth inhibition, 48 h
Assay [1] relates to TK-10.
Assay [2] has as its system OVCAR-8.
For assay [3], the system named is NCI-H522.
Assay [4] concerns SF-295.
For assay [5], the system named is NCI-H226.
For assay [6], the system named is HOP-92.
The subject of assay [7] is RXF 393.
Assay [8] has as its system HOP-62.
Assay [9] relates to LOX IMVI.
Assay [10] relates to EKVX.
Assay [11] relates to Hs-578T.
Assay [12] relates to MDA-N.
Assay [13] concerns NCI/ADR-RES.
The subject of assay [14] is CCRF-CEM.
Assay [15] deals with UACC-257.
Assay [16] deals with HL-60.
Assay [17] concerns T47D.
The test system of assay [18] is SNB-19.
Assay [19] relates to MCF7.
The test system of assay [20] is HCC 2998.

In the case of `COC(=O)[C@]1(C)CC[C@]2(C)CC[C@]3(C)C4[C@H]5Oc6c(cc7c(c6C)CCC6[C@@]7(C)CC[C@@]7(C)C8[C@](C)(CCC[C@@]8(C)C(=O)OC)CC[C@]67C)O[C@H]5c5c(cc6c(c5C)O[C@@]5(C)C7=CC=C8[C@@](C)(CC[C@@]9(C)[C@@H]%10C[C@](C)(C(=O)OC)CC[C@]%10(C)CC[C@]89C)C7=CC(=O)[C@@]5(O)O6)[C@]4(C)CC[C@@]3(C)C2C1` (stereo partly drawn), the GI50 in [1] was 2.6 µM (inactive); in assay [2] it was 2.63 µM (inactive); in [3], 2.49 µM (inactive); in assay [4] it was > 12.5 µM (inactive); in [5], > 12.5 µM (inactive); in [6], 1.92 µM (inactive). In addition, the GI50 in assay [7] is 1.91 µM (inactive); in [8] it was 8.51 µM (inactive); in [9], 2.27 µM (inactive); in [10], 3.42 µM (inactive); in assay [11], 5.78 µM (inactive); in [12], 1.93 µM (inactive). Further, the GI50 was > 12.5 µM (inactive) in assay [13]; 1.19 µM (inactive) in assay [14]; 2.83 µM (inactive) in assay [15]; 5.32 µM (inactive) in assay [16]; 2.11 µM (inactive) in [17]; 5.05 µM (inactive) in [18]. Further, the GI50 in assay [19] was 3.11 µM (inactive).
For the compound `N#CCCN(CCN(CCN(C(=O)Nc1ccccc1)c1ccccc1)C(=O)Nc1ccccc1)C(=O)Nc1ccccc1`, the GI50 in [1] was > 100 µM (inactive); in assay [2], > 100 µM (inactive); in [4], > 100 µM (inactive); in [5] it was > 100 µM (inactive); in assay [6] it was 15.2 µM (inactive); in assay [7], > 100 µM (inactive). The GI50 in assay [8] was > 100 µM (inactive); in assay [9] it was > 100 µM (inactive); in assay [10], 54.2 µM (inactive); in [11], 26 µM (inactive); in assay [12], > 100 µM (inactive); in assay [13], > 100 µM (inactive). In addition, the GI50 in [20] is 28.2 µM (inactive); in [14], 1.89 µM (inactive); in assay [15], > 100 µM (inactive); in assay [17], 48.4 µM (inactive); in assay [18], > 100 µM (inactive); in assay [19] it was 24.7 µM (inactive).
`O=C1O/C(=C\c2ccc(O)c(Br)c2)C(c2ccc(O)cc2)=C1Cl`: the GI50 is 45.6 µM (inactive) in [1]; 42.5 µM (inactive) in assay [2]; 26.5 µM (inactive) in [3]; 40.5 µM (inactive) in assay [4]; 37.4 µM (inactive) in [6]; 29.9 µM (inactive) in assay [7]. The GI50 in [8] is 46.7 µM (inactive); in [9] it was 42.2 µM (inactive); in assay [10], 32.6 µM (inactive); in assay [11] it was 37.1 µM (inactive); in [12] it was 26.1 µM (inactive); in assay [13], 29.6 µM (inactive). Moreover, the GI50 in [20] is 39.1 µM (inactive); in assay [14], 0.849 µM (active); in assay [15], 42.7 µM (inactive); in assay [16], 43.6 µM (inactive); in assay [17], 58.3 µM (inactive); in assay [18], 89.3 µM (inactive). Besides, the GI50 in assay [19] is 19.2 µM (inactive).
With `CCOC(=O)c1cc2c([nH]1)c(OC(C)=O)cc1c2ccn1Cc1ccccc1`, the GI50 in assay [2], in [4], in assay [5], in assay [6], in assay [7] and in assay [8] was > 100 µM (inactive) in each case. In addition, the GI50 in [9] is > 100 µM (inactive); in assay [10], 99.5 µM (inactive); in [11] it was > 100 µM (inactive); in assay [12], > 100 µM (inactive); in assay [13] it was > 100 µM (inactive); in assay [20], > 100 µM (inactive). The GI50 in [14], in [15], in [16], in assay [17], in assay [18] and in assay [19] was > 100 µM (inactive) each time.
In the case of `CCOC(=O)CCC1(C(=O)O[C@@H]2C[C@H](C)CC[C@H]2C(C)C)CCCCC1=O` (stereo partly drawn), the GI50 in assay [1] is 56.4 µM (inactive); in assay [2], > 100 µM (inactive); in assay [3], 67.6 µM (inactive); in assay [4] it was 65.8 µM (inactive); in assay [5], > 100 µM (inactive); in [6] it was 52.4 µM (inactive). Further, the GI50 in [7] is 55.7 µM (inactive); in [8] it was > 100 µM (inactive); in [9], > 100 µM (inactive); in [10] it was 41.3 µM (inactive); in assay [11], > 100 µM (inactive); in assay [12], 79.4 µM (inactive). In addition, the GI50 was 55.2 µM (inactive) in assay [13]; 46.1 µM (inactive) in assay [14]; 23.3 µM (inactive) in assay [15]; 18.2 µM (inactive) in [16]; 34.8 µM (inactive) in assay [17]; > 100 µM (inactive) in [18]. For the same compound, in assay [19], the GI50 is 58.6 µM (inactive).
For `Cc1ccc(C2=C(Cl)C(=O)C(c3ccc(C)cc3)=C(Cl)C2=O)cc1`, the GI50 in [1], in assay [2], in assay [3], in assay [4], in assay [5] and in assay [6] was > 100 µM (inactive) in each case. For the same compound, the GI50 in assay [7], in assay [8], in [9], in [10], in assay [11] and in assay [12] was > 100 µM (inactive) throughout. For the same compound, the GI50 is > 100 µM (inactive) in assay [13]; 83.4 µM (inactive) in assay [14]; > 100 µM (inactive) in assay [15]; > 100 µM (inactive) in [16]; > 100 µM (inactive) in assay [17]; > 100 µM (inactive) in [18]. Moreover, the GI50 in [19] is > 100 µM (inactive).
Take `C=C1C[C@@H](O)[C@@H](Br)C(C)(C)[C@@]12C=CC(=O)CC2`: the GI50 was 12.6 µM (inactive) in assay [1]; > 100 µM (inactive) in assay [2]; > 100 µM (inactive) in assay [3]; > 100 µM (inactive) in assay [4]; > 100 µM (inactive) in [6]; > 100 µM (inactive) in assay [7]. For the same compound, the GI50 in [8] was > 100 µM (inactive); in assay [9], > 100 µM (inactive); in assay [11], > 100 µM (inactive); in assay [12], > 100 µM (inactive); in [13], > 100 µM (inactive); in assay [20], > 78.7 µM (inactive). The GI50 in assay [14], in assay [15], in assay [16], in [17], in assay [18] and in assay [19] was > 100 µM (inactive) throughout.
As for `COC(=O)[C@@H](COC(=O)/C=C/c1ccc(OC(C)=O)c(OC(C)=O)c1)NC(=O)/C=C/c1ccc(OC(C)=O)c(OC(C)=O)c1`, the GI50 in assay [2] is 22.5 µM (inactive); in assay [3], 13.2 µM (inactive); in assay [5], 35.6 µM (inactive); in assay [6], 32.7 µM (inactive); in [7], 35.1 µM (inactive); in [8] it was 25.6 µM (inactive). Besides, the GI50 in assay [9] was 11.3 µM (inactive); in assay [10], 16.3 µM (inactive); in assay [11], 25.2 µM (inactive); in assay [12], 18.3 µM (inactive); in [13], 51.5 µM (inactive); in [20], 21.8 µM (inactive). For the same compound, the GI50 is 9.98 µM (inactive) in [14]; 51.8 µM (inactive) in [15]; 18.7 µM (inactive) in assay [16]; 11.1 µM (inactive) in assay [17]; 44.5 µM (inactive) in assay [18]; 33.9 µM (inactive) in assay [19].
For the compound `CC(/C=C/C=C\C=C\C=C(/C)C(=O)NC(C)CO)=C\C(C)C(O)/C(C)=C/C(C)CCc1ccccc1` (stereo not drawn), the GI50 in assay [1] was 14 µM (inactive); in [2], 6.82 µM (inactive); in assay [3], 2.77 µM (inactive); in [4], 0.0236 µM (active); in assay [5] it was 8.65 µM (inactive); in [6] it was 5.41 µM (inactive). Moreover, the GI50 in assay [7] was 12.9 µM (inactive); in assay [8], 12.4 µM (inactive); in assay [10], 4.73 µM (inactive); in assay [11], 19.3 µM (inactive); in assay [12] it was 12.2 µM (inactive); in assay [13], 15.6 µM (inactive). Besides, the GI50 was 7.59 µM (inactive) in [20]; 8.85 µM (inactive) in assay [14]; 0.0359 µM (active) in assay [15]; 5.02 µM (inactive) in [16]; 3.61 µM (inactive) in assay [17]; 15.3 µM (inactive) in [18]. Moreover, the GI50 in assay [19] is 1.84 µM (inactive).
Consider `Oc1c(C2=NNC(c3cccs3)C2)ccc2ccccc12` (stereo not drawn), for which the GI50 was 28.1 µM (inactive) in assay [1]; 27.5 µM (inactive) in assay [2]; 21.9 µM (inactive) in [3]; 18.2 µM (inactive) in assay [4]; 24.9 µM (inactive) in assay [5]; 18.2 µM (inactive) in assay [6]. Moreover, the GI50 in assay [7] is 42.6 µM (inactive); in assay [8], 26.9 µM (inactive); in [11], 17.1 µM (inactive); in [12], 16.5 µM (inactive); in assay [13] it was 21.9 µM (inactive); in assay [20], 14.8 µM (inactive). The GI50 in assay [14] was 11.1 µM (inactive); in assay [15] it was 30.1 µM (inactive); in assay [17] it was 4.42 µM (inactive); in assay [19] it was 15.6 µM (inactive).
